Patent US20240366624A1, “METHODS AND COMPOSITIONS FOR TREATING THROMBOTIC DISEASE” (Washington University, priority 2023, published 2024)
Entries after “also recorded” stand apart in the source; their conditions may differ. Where a SMILES comes first, the peptide text is derived from it. Bridges are numbered along the chain shown (N, C = ends). [ ]: non-standard residue; d: D form. hArg = N=C(N)NCCCC[C@H](N)C(=O)O; Mpa = O=C(O)CCS

Experiments:
[1] = test system: WT (C57BL/6) mice; assay: Intravital microscopy, laser-induced cremaster arteriolar injury, WT mice; assay type: in vivo, mouse; details: iv 5 μg/g BW
Procedure: Intravital microscopy was performed in a mouse model of laser-induced cremaster arteriolar injury as previously described. WT (C57BL/6), littermate WT control, and CKO and KO male mice (8-10 weeks old) were anesthetized with intraperitoneal injection of ketamine and xylazine. The cremaster muscle was exteriorized and superfused with 37° C. bicarbonate-buffered saline throughout the experiment. Arteriolar wall injury was induced by laser ablation (Photonics Instruments) as previously described. Multiple thrombi were generated in at least 3 to 4 different arterioles of 1 mouse, with new thrombi formed upstream of earlier thrombi to minimize any contribution from thrombi generated earlier in the mouse. Platelets and fibrin were visualized by infusion of DyLight 649-conjugated anti-CD42c (0.2 μg/g body weight [BW]) and Alexa Fluor 488-conjugated anti-fibrin (0.2 μg/g BW) antibodies, respectively. To detect extracellular Ero1α, Alexa Fluor 488-conjugated rabbit IgG or nonblocking anti-ERO1α antibodies (0.3 μg/g BW) were injected into WT (C57BL/6), WT control, Ero1α KO, and Ero1α CKO mice. In some experiments, wtERO1α or activity-null ERO1α-Cys94Ser (mutant ERO1α [mERO1α]; 4 μg/g BW) was infused into Ero1α KO mice before imaging. To test the effect of ERO1α inhibitors or blocking anti-ERO1α antibodies, WT (C57BL/6) mice were treated with intravenous injection of vehicle control, eptifibatide (5 μg/g BW), B12-5 (5 μg/g BW), isotype control IgGs, anti-ERO1α (15E9, 1-3 μg/g BW), or anti-PDI (BD34, 3 μg/g BW) 3 minutes before treatment with the anti-CD42c and anti-fibrin antibodies. The same dose of eptifibatide was injected every 20 minutes to maintain the inhibitory effect. […] Fluorescence and bright-field images were captured in 6 to 10 different cremaster arterioles with a diameter of 30 to 45 μm in each mouse and recorded using either an Olympus BX61W microscope with a 60×1.0 salt water immersion objective or a Zeiss Axio Examiner Z1 microscope system with a Yokogawa confocal spinning disk (CSU-W1) equipped with 4 stack laser system (405-, 488-, 561-, and 637-nm wavelengths). Images were collected with a high-speed, high-resolution camera (2304×2304 pixel format; ORCA-Fusion BT sCMOS, Hamamatsu). Time 0 was set to when image capture began on each vessel. The data were analyzed using Slidebook (version 6.0; Intelligent Imaging Innovations). Due to the significant variation between vessels in the same mouse, the result from each vessel was counted as an individual value. Representative images were chosen that most closely resemble the mean values in the quantifications.

[2] = test system: WT mice; assay: FeCl3-induced carotid arterial thrombosis; assay type: in vivo, mouse; details: 5 μg/g BW, vs vehicle control
Procedure: FIG. […]) is an exemplary embodiment of B12-5 having an antithrombotic effect without prolonging tail bleeding times in mice in accordance with the present disclosure. FIG. […]): Ex vivo effects of B12-5. Wild type (WT; […] One hour later, blood was drawn, followed by isolating platelets. P-selectin exposure (FIG. 19A) and αIIbβ3 integrin activation (FIG. 19B) were assessed in flow cytometry. FIG. 19C: Platelet aggregation was measured after treatment with 0.025 U/mL thrombin. The data represent the mean±SD (n=4). FIG. 19D: The plasma levels of B12-5 were analyzed by liquid chromatography-tandem mass spectrometry (LC-MS/MS) after intravenous injection of the compound (5 μg/g BW) into WT mice and quantified by comparison with a standard curve of B12-5 (mean±SD, n=3). FIG. 19E and FIG. 19F: After laser-induced cremaster arteriolar injury, intravital microscopy was conducted with WT mice pretreated with intravenous injection of saline, eptifibatide (5 μg/g BW), vehicle, or B12-5 (5 μg/g BW). The median integrated fluorescence intensities of anti-CD42c (F platelet) and anti-fibrin (F fibrin) antibodies (n=37-42 arterioles in 6 mice per group). Quantification of the antibody signal at a different time point after laser injury. FIG. 19G: Comparison of B12-5 (5 μg/g BW) with eptifibatide (5 μg/g BW) and their respective controls in inhibiting FeCl3-induced carotid artery thrombosis in WT mice. FIG. 19H and FIG. 19I: WT mice were treated with intravenous injection of vehicle control, eptifibatide (5 μg/g BW), or B12-5 (5 μg/g BW). Thirty minutes later, tail bleeding times and Hb contents were measured after amputation of the tail tip. […] Twenty-three hours later, neurological deficits were assessed by the Bederson score and grip test, and infarct volume was measured as described in Methods. […] Twenty-three hours later, the neurological deficit and infarct volume were measured as described above. […] P values determined by unpaired Student t test (FIG. […]), FIG. 19K, and FIG. 19O) or Mann-Whitney U test (FIG. 19(E-1), FIG. 19L, FIG. 19M, FIG. 19P, and FIG. 19Q). […]

In the case of `N=C(N)NCCCC[C@@H]1NC(=O)CCSSC[C@@H](C(N)=O)NC(=O)[C@@H]2CCCN2C(=O)[C@H](Cc2c[nH]c3ccccc23)NC(=O)[C@H](CC(=O)O)NC(=O)CNC1=O` [eptifibatide, reference compound] ([Mpa][hArg]GDWPC-NH2; disulfide 1-7), the fibrin generation [1] is reported as “without reducing; also recorded: without affecting”, the platelet thrombus formation [1] is reported as “inhibit” and the time to occlusion [2] is reported as “significantly prolonged”.
